Broadly, the IC50 is the concentration at which inhibition is half-maximal. Usually Ki stands for the equilibrium dissociation constant of an inhibitor or competing ligand from its target.

IC50 and Ki data for 5 compounds are collected here from ChEMBL document CHEMBL1909046, “DrugMatrix in vitro pharmacology data”.

The target in one data set is D(3) dopamine receptor (Homo sapiens, UniProt P35462). Briefly: DRUGMATRIX: Dopamine D3 radioligand binding (ligand: [3H] Spiperone). The data set is classed as cell membranes, CHO, Membrane.
For data set [1], the target named is Mitogen-activated protein kinase 1 (Homo sapiens, UniProt P28482). Briefly: DRUGMATRIX: Protein Serine/Threonine Kinase, ERK2 enzyme inhibition (substrate: Myelin Basic Protein). Further details: species or system Escherichia coli. The conditions noted are these: Not Active = under 50% inhibition at 10 µM.
Data set [2] concerns the target Sigma non-opioid intracellular receptor 1 (Homo sapiens, UniProt Q99720). Briefly: DRUGMATRIX: Sigma1 radioligand binding (ligand: [3H] Haloperidol). The data set is classed as cell membranes, Jurkat, Membrane. As to conditions: Not Active = under 50% inhibition at 10 µM.
Data set [3] concerns the target Voltage-gated inwardly rectifying potassium channel KCNH2 (Homo sapiens, UniProt Q12809). The conditions noted are these: hek293. Note: in other assays of this panel Not Active means under 50% inhibition at 10 µM.
Data set [4] has as its target Sodium-dependent noradrenaline transporter (Homo sapiens, UniProt P23975). Briefly: DRUGMATRIX: Norepinephrine Transporter radioligand binding (ligand: [125I] RTI-55). The data set is classed as cell membranes, MDCK, Membrane. As to conditions: Not Active = under 50% inhibition at 10 µM; for Ki: read-out: Ki.
In data set [5] the target is Mitogen-activated protein kinase 14 (Homo sapiens, UniProt Q16539). On the set-up: species or system Escherichia coli.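 Note: inhibition of p38alpha enzyme activity in a biochemical kinase assay, with myelin basic protein serving as substrate; in other assays of this panel Not Active means under 50% inhibition at 10 µM.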
Data set [6] deals with Platelet-activating factor receptor (Homo sapiens, UniProt P25105). Briefly: biochemical. The data set is classed as tissue-based.
In a further data set the target is Melanocortin receptor 3 (Homo sapiens, UniProt P41968). Format: cell membranes, Membrane. The conditions noted are these: hek293. Note: in other assays of this panel Not Active means under 50% inhibition at 10 µM.
The target in another data set is Cytochrome P450 2E1 (Homo sapiens, UniProt P05181). As to conditions: bti-tn-5b1-4. Note: in other assays of this panel Not Active means under 50% inhibition at 10 µM.
For another data set, the target named is Estrogen receptor beta (Homo sapiens, UniProt Q92731). As to conditions: sf9. Note: in other assays of this panel Not Active means under 50% inhibition at 10 µM.
For the next data set, the target named is T1, Calcitonin receptor (Homo sapiens, UniProt P30988). Note: in other assays of this panel Not Active means under 50% inhibition at 10 µM.
T1 sequence (P30988 whole entry): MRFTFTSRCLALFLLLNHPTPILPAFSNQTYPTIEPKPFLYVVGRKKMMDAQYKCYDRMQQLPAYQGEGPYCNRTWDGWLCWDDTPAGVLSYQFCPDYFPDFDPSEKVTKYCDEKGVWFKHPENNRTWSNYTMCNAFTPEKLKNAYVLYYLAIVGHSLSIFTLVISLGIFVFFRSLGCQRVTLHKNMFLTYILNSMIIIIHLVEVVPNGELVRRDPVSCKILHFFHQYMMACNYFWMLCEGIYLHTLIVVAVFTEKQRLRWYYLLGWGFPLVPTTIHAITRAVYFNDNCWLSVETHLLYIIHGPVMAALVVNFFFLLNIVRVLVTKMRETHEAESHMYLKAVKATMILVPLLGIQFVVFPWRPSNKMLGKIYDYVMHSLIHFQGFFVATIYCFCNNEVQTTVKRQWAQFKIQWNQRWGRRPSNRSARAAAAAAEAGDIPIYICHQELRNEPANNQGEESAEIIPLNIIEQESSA
The data set is classed as cell membranes, Membrane. The conditions noted are these: t47d.

For data set [7], the target named is T2, C-X-C chemokine receptor type 2 (Homo sapiens, UniProt P25025). Note: in other assays of this panel Not Active means under 50% inhibition at 10 µM.
T2 sequence (P25025 whole entry): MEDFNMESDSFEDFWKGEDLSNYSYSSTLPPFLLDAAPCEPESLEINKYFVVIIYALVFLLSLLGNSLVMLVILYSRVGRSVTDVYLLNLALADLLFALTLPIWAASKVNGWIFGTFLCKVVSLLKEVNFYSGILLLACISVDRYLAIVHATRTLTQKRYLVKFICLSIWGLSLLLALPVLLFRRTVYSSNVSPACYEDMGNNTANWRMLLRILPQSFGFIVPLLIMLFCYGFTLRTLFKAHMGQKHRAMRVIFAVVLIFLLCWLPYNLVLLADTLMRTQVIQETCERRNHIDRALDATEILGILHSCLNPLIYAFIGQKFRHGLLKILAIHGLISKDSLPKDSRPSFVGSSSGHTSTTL
Format: cell membranes, Membrane. As to conditions: cho-k1.

In another data set the target is Cytochrome P450 2D6 (Homo sapiens, UniProt P10635). The conditions noted are these: bti-tn-5b1-4. Note: in other assays of this panel Not Active means under 50% inhibition at 10 µM.
The next data set concerns the target T3, Cytochrome P450 1A2 (Homo sapiens, UniProt P05177). Note: in other assays of this panel Not Active means under 50% inhibition at 10 µM.
T3 sequence (P05177 whole entry): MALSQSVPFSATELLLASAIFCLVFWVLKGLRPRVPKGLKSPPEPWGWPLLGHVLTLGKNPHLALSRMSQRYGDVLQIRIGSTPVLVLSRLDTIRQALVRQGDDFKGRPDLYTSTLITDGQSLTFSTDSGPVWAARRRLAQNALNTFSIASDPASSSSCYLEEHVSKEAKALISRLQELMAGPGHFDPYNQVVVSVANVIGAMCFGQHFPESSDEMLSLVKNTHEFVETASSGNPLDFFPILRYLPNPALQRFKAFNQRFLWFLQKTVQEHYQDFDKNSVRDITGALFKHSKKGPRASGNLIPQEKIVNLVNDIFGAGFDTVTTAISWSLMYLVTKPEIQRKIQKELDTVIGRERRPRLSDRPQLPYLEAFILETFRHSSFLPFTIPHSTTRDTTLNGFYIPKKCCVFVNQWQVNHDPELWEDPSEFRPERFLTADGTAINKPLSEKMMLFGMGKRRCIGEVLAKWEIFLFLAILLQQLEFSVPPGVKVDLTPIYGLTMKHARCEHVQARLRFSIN
As to conditions: bti-tn-5b1-4.

Data set [8] is described as follows: DRUGMATRIX: GABAA, Chloride Channel, TBOB radioligand binding (ligand: [3H] TBOB). Format: cell membranes, Rattus norvegicus, Wistar, Cerebral cortex, Membrane. As to conditions: Not Active = under 50% inhibition at 10 µM.
The next data set deals with Cytochrome P450 2C9 (Homo sapiens, UniProt P11712). The conditions noted are these: bti-tn-5b1-4.
The next data set deals with Cytochrome P450 2C19 (Homo sapiens, UniProt P33261). As to conditions: bti-tn-5b1-4.
Cytochrome P450 2C19, sequence (P33261 whole entry): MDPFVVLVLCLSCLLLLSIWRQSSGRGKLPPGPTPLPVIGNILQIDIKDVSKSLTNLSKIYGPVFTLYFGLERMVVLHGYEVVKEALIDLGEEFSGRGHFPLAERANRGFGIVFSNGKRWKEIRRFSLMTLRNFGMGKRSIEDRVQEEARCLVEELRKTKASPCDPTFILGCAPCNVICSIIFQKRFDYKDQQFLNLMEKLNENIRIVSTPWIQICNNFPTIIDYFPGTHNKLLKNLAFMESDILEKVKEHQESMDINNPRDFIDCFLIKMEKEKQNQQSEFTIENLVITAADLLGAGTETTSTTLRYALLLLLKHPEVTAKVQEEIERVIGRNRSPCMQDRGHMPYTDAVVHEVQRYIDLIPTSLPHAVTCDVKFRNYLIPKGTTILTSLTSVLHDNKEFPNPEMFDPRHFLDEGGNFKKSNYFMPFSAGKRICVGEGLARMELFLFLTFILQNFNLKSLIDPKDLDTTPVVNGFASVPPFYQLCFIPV

Platelet-activating factor receptor, sequence (P25105 whole entry): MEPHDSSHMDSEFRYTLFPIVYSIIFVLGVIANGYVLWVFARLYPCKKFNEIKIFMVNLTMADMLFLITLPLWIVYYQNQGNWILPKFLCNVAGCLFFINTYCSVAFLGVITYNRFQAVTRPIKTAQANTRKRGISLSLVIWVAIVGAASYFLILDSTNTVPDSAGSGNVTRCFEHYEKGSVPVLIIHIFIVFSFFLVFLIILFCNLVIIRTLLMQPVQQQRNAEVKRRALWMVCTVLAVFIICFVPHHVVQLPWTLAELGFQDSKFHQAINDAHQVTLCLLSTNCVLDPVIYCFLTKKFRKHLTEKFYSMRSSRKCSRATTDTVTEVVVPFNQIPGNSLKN
Estrogen receptor beta, sequence (Q92731 whole entry): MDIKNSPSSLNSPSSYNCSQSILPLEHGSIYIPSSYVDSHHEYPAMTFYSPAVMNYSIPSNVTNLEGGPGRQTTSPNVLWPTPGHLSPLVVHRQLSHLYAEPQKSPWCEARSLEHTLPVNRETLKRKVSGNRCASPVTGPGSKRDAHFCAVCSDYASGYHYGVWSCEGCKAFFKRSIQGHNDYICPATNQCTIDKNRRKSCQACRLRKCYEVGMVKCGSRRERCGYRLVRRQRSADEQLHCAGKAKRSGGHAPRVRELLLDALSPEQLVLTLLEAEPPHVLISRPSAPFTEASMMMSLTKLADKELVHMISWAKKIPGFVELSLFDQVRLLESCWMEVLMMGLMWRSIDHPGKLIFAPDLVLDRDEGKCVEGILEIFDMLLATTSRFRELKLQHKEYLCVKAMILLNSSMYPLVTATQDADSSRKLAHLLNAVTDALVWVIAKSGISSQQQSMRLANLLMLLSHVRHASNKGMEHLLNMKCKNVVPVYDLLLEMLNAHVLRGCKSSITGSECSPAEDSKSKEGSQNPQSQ
D(3) dopamine receptor, sequence (P35462 whole entry): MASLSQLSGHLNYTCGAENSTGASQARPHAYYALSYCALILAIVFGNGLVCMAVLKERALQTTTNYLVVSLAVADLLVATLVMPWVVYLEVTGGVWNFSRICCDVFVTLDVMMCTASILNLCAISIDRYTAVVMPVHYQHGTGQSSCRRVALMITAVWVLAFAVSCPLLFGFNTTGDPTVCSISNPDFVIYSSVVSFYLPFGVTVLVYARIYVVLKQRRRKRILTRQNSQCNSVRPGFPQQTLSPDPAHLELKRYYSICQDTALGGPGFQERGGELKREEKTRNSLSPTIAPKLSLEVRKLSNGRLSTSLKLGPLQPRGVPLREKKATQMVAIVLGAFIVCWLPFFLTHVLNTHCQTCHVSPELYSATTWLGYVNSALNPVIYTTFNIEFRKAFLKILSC
Sigma non-opioid intracellular receptor 1, sequence (Q99720 whole entry): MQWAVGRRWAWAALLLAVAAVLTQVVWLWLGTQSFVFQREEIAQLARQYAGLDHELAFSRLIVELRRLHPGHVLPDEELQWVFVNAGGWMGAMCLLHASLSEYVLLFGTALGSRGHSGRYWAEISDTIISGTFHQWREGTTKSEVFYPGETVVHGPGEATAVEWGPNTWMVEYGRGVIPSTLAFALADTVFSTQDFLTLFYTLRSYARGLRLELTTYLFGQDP
Mitogen-activated protein kinase 1, sequence (P28482 whole entry): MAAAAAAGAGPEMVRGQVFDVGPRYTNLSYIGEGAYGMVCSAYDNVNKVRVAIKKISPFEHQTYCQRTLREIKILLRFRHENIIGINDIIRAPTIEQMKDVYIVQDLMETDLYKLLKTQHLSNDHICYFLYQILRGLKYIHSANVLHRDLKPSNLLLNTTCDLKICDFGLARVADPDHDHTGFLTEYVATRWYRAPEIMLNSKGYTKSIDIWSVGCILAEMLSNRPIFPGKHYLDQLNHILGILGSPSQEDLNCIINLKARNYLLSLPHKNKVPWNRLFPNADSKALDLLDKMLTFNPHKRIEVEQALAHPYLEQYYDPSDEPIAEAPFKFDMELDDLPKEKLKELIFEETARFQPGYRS
Cytochrome P450 2E1, sequence (P05181 whole entry): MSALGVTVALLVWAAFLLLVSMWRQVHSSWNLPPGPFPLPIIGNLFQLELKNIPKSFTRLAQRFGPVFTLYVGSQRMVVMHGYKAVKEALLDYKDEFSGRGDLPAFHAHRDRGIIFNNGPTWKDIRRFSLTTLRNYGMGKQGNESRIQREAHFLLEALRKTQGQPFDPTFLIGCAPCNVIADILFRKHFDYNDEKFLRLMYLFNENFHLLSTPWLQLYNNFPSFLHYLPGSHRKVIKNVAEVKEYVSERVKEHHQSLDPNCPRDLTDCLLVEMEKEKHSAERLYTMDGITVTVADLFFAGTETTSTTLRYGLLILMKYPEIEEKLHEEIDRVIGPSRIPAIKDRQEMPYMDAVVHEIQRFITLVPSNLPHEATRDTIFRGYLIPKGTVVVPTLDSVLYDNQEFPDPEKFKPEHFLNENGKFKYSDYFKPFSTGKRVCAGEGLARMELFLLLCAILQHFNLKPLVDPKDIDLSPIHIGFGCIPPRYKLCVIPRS
Melanocortin receptor 3, sequence (P41968 whole entry): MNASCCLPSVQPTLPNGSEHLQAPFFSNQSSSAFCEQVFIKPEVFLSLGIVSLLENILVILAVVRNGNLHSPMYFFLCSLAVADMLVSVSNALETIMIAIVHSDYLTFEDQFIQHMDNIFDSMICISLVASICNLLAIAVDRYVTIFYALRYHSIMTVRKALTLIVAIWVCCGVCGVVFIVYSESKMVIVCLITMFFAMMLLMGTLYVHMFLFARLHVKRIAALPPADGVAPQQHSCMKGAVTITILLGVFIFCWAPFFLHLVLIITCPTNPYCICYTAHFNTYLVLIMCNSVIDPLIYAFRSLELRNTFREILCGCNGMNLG
Voltage-gated inwardly rectifying potassium channel KCNH2, sequence (Q12809 whole entry): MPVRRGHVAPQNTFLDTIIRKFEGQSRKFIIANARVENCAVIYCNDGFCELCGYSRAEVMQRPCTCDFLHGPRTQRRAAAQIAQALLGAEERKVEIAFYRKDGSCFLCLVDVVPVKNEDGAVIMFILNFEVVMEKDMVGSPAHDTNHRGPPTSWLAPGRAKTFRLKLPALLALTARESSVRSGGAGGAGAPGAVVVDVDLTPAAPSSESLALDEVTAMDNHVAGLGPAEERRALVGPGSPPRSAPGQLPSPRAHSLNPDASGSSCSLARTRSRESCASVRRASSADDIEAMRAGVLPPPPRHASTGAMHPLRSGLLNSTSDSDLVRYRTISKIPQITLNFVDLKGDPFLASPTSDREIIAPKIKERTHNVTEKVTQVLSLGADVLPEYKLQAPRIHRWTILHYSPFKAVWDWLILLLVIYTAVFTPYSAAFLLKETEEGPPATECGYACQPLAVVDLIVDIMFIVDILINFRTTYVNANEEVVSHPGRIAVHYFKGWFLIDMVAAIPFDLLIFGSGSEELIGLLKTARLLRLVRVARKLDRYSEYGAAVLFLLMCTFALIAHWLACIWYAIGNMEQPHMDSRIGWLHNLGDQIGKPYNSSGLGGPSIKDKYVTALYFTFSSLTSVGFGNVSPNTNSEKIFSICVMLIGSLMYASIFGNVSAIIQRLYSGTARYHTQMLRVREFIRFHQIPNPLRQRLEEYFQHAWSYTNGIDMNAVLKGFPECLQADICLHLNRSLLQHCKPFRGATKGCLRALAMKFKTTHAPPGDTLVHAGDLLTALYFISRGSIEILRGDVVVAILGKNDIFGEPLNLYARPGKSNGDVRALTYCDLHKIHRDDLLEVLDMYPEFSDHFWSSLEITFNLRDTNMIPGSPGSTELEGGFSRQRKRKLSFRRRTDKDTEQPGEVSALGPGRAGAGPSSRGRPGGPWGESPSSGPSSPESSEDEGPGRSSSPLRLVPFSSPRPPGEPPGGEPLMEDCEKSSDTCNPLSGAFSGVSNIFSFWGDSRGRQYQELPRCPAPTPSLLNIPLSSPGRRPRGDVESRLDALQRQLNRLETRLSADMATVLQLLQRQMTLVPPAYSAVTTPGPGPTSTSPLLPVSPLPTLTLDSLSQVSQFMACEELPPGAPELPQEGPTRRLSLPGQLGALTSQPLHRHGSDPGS
Cytochrome P450 2D6, sequence (P10635 whole entry): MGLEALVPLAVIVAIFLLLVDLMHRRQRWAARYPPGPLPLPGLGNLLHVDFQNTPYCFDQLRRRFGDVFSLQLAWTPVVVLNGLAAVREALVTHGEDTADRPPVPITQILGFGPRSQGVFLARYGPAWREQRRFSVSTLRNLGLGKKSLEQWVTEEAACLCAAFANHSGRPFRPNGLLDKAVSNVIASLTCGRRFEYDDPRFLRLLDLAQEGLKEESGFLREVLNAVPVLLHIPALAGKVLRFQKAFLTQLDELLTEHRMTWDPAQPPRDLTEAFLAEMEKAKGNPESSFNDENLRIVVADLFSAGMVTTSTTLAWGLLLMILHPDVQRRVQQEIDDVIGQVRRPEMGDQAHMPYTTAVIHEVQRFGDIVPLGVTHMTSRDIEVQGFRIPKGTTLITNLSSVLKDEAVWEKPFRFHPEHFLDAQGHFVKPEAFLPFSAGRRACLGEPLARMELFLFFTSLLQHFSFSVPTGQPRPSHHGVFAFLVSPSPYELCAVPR

Turning to `Clc1ccccc1C(c1ccccc1)(c1ccccc1)n1ccnc1` [CLOTRIMAZOLE], the IC50 at D(3) dopamine receptor (read-out: IC50) is 2.65 µM; in data set [1], “Not Active”; in data set [2] (jurkat), “Not Active”; in data set [3], “Not Active”; in data set [4] (read-out: IC50), 7.94 µM; in [5], “Not Active”. Further, the IC50 was 35 µM in [6] (read-out: IC50); “Not Active” at Melanocortin receptor 3; “Not Active” on Cytochrome P450 2E1; “Not Active” against Estrogen receptor beta; “Not Active” at Calcitonin receptor; “Not Active” in [7]. The IC50 result against Cytochrome P450 2D6 and on Cytochrome P450 1A2 was “Not Active” in each case. Besides, the inhibition constant (Ki) on D(3) dopamine receptor (read-out: Ki) was 0.899 µM; in data set [3] it was “Not Active”; in data set [4], 7.87 µM; in data set [6] (read-out: Ki), 22.6 µM; at Cytochrome P450 2E1, “Not Active”; at Cytochrome P450 2D6, “Not Active”. Also, on Cytochrome P450 1A2, the Ki entry was “Not Active”.

In the case of `CC(CCc1ccccc1)NCC(O)c1ccc(O)c(C(N)=O)c1` (configuration not stated) [LABETALOL], the IC50 entry was “Not Active” on D(3) dopamine receptor (cho); “Not Active” in data set [1]; 1.81 µM in [2] (read-out: IC50); “Not Active” in data set [3]; “Not Active” in data set [8]; “Not Active” against Cytochrome P450 2C9. The IC50 was 3.35 µM in data set [4] (read-out: IC50); “Not Active” in data set [5]; “Not Active” in data set [6] (platelet); “Not Active” on Melanocortin receptor 3; “Not Active” at Cytochrome P450 2E1; “Not Active” against Estrogen receptor beta. Also, the IC50 entry (on Calcitonin receptor; in [7]; against Cytochrome P450 1A2) was “Not Active” throughout. Besides, the Ki is 0.763 µM in [2] (read-out: Ki); “Not Active” in data set [3]; “Not Active” in data set [8]; “Not Active” at Cytochrome P450 2C9; 3.33 µM in data set [4]; “Not Active” on Cytochrome P450 2E1. Also, the inhibition constant Ki entry on Cytochrome P450 1A2 was “Not Active”.

As for `Nc1ccc(S(=O)(=O)Nc2ccnn2-c2ccccc2)cc1` [SULFAPHENAZOLE], the IC50 entry (on D(3) dopamine receptor (cho); in data set [1]; in data set [2] (jurkat); in data set [3]; against Cytochrome P450 2C19; in data set [8]) was “Not Active” in each case. Also, the IC50 entry (in data set [4] (mdck); in data set [5]; in data set [6] (platelet); against Melanocortin receptor 3; on Cytochrome P450 2E1; against Estrogen receptor beta) was “Not Active” in each case. In addition, the IC50 entry (at Calcitonin receptor; in [7]; on Cytochrome P450 2D6; at Cytochrome P450 1A2) was “Not Active” each time. Further, the Ki entry (in [3]; on Cytochrome P450 2C19; in data set [8]; at Cytochrome P450 2E1; on Cytochrome P450 2D6; at Cytochrome P450 1A2) was “Not Active” throughout.

With `CN(C)[C@@H]1C(O)=C(C(N)=O)C(=O)[C@@]2(O)C(O)=C3C(=O)c4c(O)cccc4[C@@](C)(O)[C@H]3C[C@@H]12` [TETRACYCLINE], the IC50 entry (on D(3) dopamine receptor (cho); in [1]; in data set [2] (jurkat); in data set [3]; on Cytochrome P450 2C19; in data set [8]) was “Not Active” throughout. The IC50 entry (in data set [4] (mdck); in [5]; in data set [6] (platelet); at Melanocortin receptor 3; at Cytochrome P450 2E1; on Estrogen receptor beta) was “Not Active” each time. In addition, the IC50 result (on Calcitonin receptor; in [7]; against Cytochrome P450 2D6) was “Not Active” each time. For the same compound, the Ki entry (in [3]; on Cytochrome P450 2C19; in [8]; on Cytochrome P450 2E1; on Cytochrome P450 2D6) was “Not Active” each time.

As to `CN[C@H](CC(C)C)C(=O)N[C@H]1C(=O)N[C@@H](CC(N)=O)C(=O)N[C@H]2C(=O)N[C@H]3C(=O)N[C@H](C(=O)N[C@H](C(=O)O)c4cc(O)cc(O)c4-c4cc3ccc4O)[C@H](O)c3ccc(c(Cl)c3)Oc3cc2cc(c3O[C@@H]2O[C@H](CO)[C@@H](O)[C@H](O)[C@H]2O[C@H]2C[C@](C)(N)[C@H](O)[C@H](C)O2)Oc2ccc(cc2Cl)[C@H]1O` [VANCOMYCIN], the IC50 entry (at D(3) dopamine receptor (cho); in data set [1]; in [2] (jurkat); in [3]; on Cytochrome P450 2C19; in data set [8]) was “Not Active” each time. Besides, the IC50 entry (in [4] (mdck); in [5]; in data set [6] (platelet); at Melanocortin receptor 3; on Cytochrome P450 2E1; against Estrogen receptor beta) was “Not Active” in each case. Moreover, the IC50 result (on Calcitonin receptor; in data set [7]; against Cytochrome P450 2D6; against Cytochrome P450 1A2) was “Not Active” throughout. The Ki result (in data set [3]; at Cytochrome P450 2C19; in data set [8]; at Cytochrome P450 2E1; on Cytochrome P450 2D6; on Cytochrome P450 1A2) was “Not Active” in each case.
